# Data published in PubChem BioAssay AID588807 (The Scripps Research Institute Molecular Screening Center, 2011).
# Activity calls are given as the source filed them. How the calls were made is not given here.
# Experiments:
# Assay in all cases: competitive ABPP of Abhd10 versus anti-targets – biochemical, fluorescence, gel-based, mouse proteome, selectivity assay for PME-1 inhibitor project, late-stage follow-up (AID 588807)
# Kiaa1363 = details: anti-target, at 10 µM, stronger effect = higher value
# [1] = target: Monoacylglycerol lipase ABHD6 (Mus musculus) (UniProt Q8R2Y0); details: anti-target, stronger effect = higher value
# Magl = details: anti-target, at 10 µM, stronger effect = higher value
# [2] = target: Palmitoyl-protein thioesterase ABHD10, mitochondrial (Mus musculus) (UniProt Q6PE15); details: stronger effect = higher value
# [3] = target: Prolyl endopeptidase (Mus musculus) (UniProt Q9QUR6); details: PREP, anti-target, stronger effect = higher value
# APEH = details: anti-target, stronger effect = higher value
# Sequence of Palmitoyl-protein thioesterase ABHD10, mitochondrial (Mus musculus) (Q6PE15 whole entry, looked up): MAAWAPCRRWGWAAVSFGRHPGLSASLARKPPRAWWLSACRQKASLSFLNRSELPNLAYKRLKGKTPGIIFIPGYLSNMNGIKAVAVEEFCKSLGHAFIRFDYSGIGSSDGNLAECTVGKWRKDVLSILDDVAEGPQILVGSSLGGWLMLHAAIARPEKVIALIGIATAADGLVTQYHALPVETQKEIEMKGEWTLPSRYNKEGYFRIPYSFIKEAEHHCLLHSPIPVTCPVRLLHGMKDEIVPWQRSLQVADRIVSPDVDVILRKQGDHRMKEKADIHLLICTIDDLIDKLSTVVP
# Sequence of Monoacylglycerol lipase ABHD6 (Mus musculus) (Q8R2Y0 whole entry, looked up): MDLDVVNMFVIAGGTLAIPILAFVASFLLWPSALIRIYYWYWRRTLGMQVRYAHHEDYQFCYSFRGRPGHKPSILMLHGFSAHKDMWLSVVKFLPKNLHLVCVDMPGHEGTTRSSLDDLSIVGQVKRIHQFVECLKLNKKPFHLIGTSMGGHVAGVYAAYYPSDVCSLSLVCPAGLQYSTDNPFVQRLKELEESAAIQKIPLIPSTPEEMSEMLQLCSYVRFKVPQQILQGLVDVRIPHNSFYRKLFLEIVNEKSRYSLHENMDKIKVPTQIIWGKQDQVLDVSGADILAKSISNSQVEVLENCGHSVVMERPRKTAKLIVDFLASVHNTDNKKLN
# Sequence of Prolyl endopeptidase (Mus musculus) (Q9QUR6 whole entry, looked up): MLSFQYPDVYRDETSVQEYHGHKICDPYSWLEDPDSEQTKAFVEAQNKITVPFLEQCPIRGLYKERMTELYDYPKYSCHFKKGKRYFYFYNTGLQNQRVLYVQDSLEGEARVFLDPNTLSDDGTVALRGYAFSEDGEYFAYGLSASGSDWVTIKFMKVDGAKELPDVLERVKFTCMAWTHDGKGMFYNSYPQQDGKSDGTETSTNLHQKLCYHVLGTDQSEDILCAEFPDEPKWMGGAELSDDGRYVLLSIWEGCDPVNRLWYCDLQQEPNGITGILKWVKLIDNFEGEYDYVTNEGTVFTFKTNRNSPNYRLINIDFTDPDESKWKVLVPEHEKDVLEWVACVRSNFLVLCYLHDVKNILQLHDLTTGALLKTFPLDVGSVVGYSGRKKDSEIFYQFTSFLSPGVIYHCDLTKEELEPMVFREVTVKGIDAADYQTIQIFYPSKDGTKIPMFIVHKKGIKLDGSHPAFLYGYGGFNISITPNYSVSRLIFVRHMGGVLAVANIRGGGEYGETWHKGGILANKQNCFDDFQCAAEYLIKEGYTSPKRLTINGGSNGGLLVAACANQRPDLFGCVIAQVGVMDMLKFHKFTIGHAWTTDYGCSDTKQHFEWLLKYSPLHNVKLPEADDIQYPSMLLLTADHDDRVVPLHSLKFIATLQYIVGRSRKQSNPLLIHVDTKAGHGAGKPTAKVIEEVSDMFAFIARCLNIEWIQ
inhibition (Kiaa1363),inhibition ([1]; at 10 µM),inhibition (Magl),inhibition ([2]; at 10 µM),"inhibition ([2]; inhibition, at 0.1 µM) [%]","inhibition ([2]; inhibition, at 1 µM) [%]",inhibition ([3]; at 10 µM),"inhibition ([3]; inhibition, at 0.1 µM) [%]","inhibition ([3]; inhibition, at 1 µM) [%]",inhibition (APEH; at 10 µM),"inhibition ([1]; inhibition, at 1 µM) [%]","inhibition (APEH; inhibition, at 1 µM) [%]",Compound
55% (inactive),60% (inactive),20% (inactive),90% (inactive),10,60,55% (inactive),10,25,0% (inactive),,,C=CCOC(=O)N1N(C(=O)OC)C(=O)[C@@]1(CC)c1ccccc1
0% (inactive),0% (inactive),0% (inactive),0% (inactive),,,0% (inactive),,,85% (inactive),,,COC(=O)N1C(=O)[C@](c2ccccc2)(C2CCCC2)N1C(=O)OC
25% (inactive),65% (inactive),45% (inactive),100%,75,100,100% (inactive),20,45,70% (inactive),,,CCOC(=O)N1C(=O)[C@@](CC)(c2cccc(C)c2)N1C(=O)OCC
0% (inactive),0% (inactive),0% (inactive),20% (inactive),,,10% (inactive),,,0% (inactive),,,CC[C@@]1(c2cccc(C)c2)C(=O)N(C(=O)OCC(Cl)(Cl)Cl)N1C(=O)OCC(Cl)(Cl)Cl
35% (inactive),80% (inactive),50% (inactive),100% (inactive),30,90,70% (inactive),,10,55% (inactive),,,C=CCOC(=O)N1C(=O)[C@@](CC)(c2ccccc2)N1C(=O)OCC=C
10% (inactive),75% (inactive),50% (inactive),90%,80,90,40% (inactive),,15,0% (inactive),,,C=CCOC(=O)N1C(=O)[C@@](CC)(c2ccc(C)cc2)N1C(=O)OCC=C
25% (inactive),55% (inactive),60% (inactive),100%,60,95,65% (inactive),,,0% (inactive),,,CCOC(=O)N1C(=O)[C@@](CC)(c2ccc(C)cc2)N1C(=O)OCC
20% (inactive),65% (inactive),10% (inactive),95% (inactive),45,90,90% (inactive),,,90% (inactive),,,CC[C@@]1(c2cccc(Cl)c2)C(=O)N(C(=O)OC)N1C(=O)OC
0% (inactive),70% (inactive),0% (inactive),100% (inactive),30,100,55% (inactive),,20,75% (inactive),20,,CC[C@@]1(c2cccc(C)c2)C(=O)N(C(=O)OC(C)C)N1C(=O)OC(C)C
0% (inactive),75% (inactive),0% (inactive),100% (inactive),20,95,70% (inactive),20,35,20% (inactive),,,CC[C@@]1(c2cccc(C)c2)C(=O)N(C(=O)OC)N1C(=O)OC(C)C
0% (inactive),0% (inactive),10% (inactive),90% (inactive),20,70,25% (inactive),,,55% (inactive),,,CC[C@@]1(c2ccc(Cl)c(Cl)c2)C(=O)N(C(=O)OC)N1C(=O)OC
0% (inactive),10% (inactive),0% (inactive),70% (inactive),,10,0% (inactive),,,0% (inactive),,,CC[C@@]1(c2cccc(C)c2)C(=O)N(C(=O)OC(C)(C)C)N1C(=O)OC(C)(C)C
0% (inactive),25% (inactive),0% (inactive),95% (inactive),40,90,0% (inactive),,,0% (inactive),,,CC[C@@]1(c2cccc(OC)c2)C(=O)N(C(=O)OC(C)C)N1C(=O)OC(C)C
0% (inactive),0% (inactive),0% (inactive),60% (inactive),10,25,30% (inactive),,10,0% (inactive),,,CC[C@@]1(c2cccc(C)c2)C(=O)N(C(=O)OC(C)C)N1C(=O)OC
15% (inactive),0% (inactive),10% (inactive),90% (inactive),40,85,0% (inactive),,,100% (inactive),,20,CC[C@@]1(c2cccc(F)c2)C(=O)N(C(=O)OC(C)C)N1C(=O)OC(C)C
0% (inactive),0% (inactive),0% (inactive),45% (inactive),,,0% (inactive),,,100% (inactive),,30,CC[C@]1(c2ccc(C)cc2)C(=O)N(C(=O)OC(C)C)N1C(=O)OC(C)C
35% (inactive),50% (inactive),45% (inactive),100% (inactive),35,100,85% (inactive),,20,50% (inactive),,,CC[C@@]1(c2cccc(C)c2)C(=O)N(C(=O)OC)N1C(=O)OC
